Test results: PMC6792352, “Limited Chemical Structural Diversity Found to Modulate Thyroid Hormone Receptor in the Tox21 Chemical Library” (Environmental Health Perspectives, 2019)
Counter-ions that a name gives are not always drawn.

Assay: in vitro
Details: rat, gh3-tre-luc cells

SMILES | CC50 at 24 h (AC50 (uM) modified / 1000) [µM] | further results
CC1=NS(=O)(=O)c2cc(Cl)ccc2N1 [Diazoxide] | > 50 | 
CCOP(=O)(OCC)Oc1cc(C)nc(C(C)C)n1 [Diazoxon] |  | CC50 at 24 h (AC50 (uM) modified / 1000, Tox21_110001=Tox21_301125, viability, 1 nM T3 present, 24 h): > 90 µM
NC[C@@H]1CC[C@@H](N)[C@@H](O[C@H]2[C@H](O)[C@@H](O[C@H]3O[C@H](CO)[C@@H](O)[C@H](N)[C@H]3O)[C@H](N)C[C@@H]2N)O1 [Dibekacin] | > 50 | 
CN(Cc1ccccc1)Cc1ccccc1 [Dibemethine] | > 50 | 
c1ccc2c(c1)ccc1cc3c(ccc4ccccc43)cc12 [Dibenz(a,h)anthracene] | > 50 | 
c1ccc2cc3c4ccccc4c4ccccc4c3cc2c1 [Dibenz[a,c]anthracene] | > 90 | 
CN(C)CCN1C(=O)c2ccccc2N(C)c2ccccc21 [Dibenzepin hydrochloride] | > 50 | 
c1ccc2c(c1)Oc1ccccc1O2 [Dibenzo-p-dioxin] |  | CC50 at 24 h (AC50 (uM) modified / 1000, Tox21_110001=Tox21_202045, viability, 1 nM T3 present, 24 h): > 90 µM
c1ccc2c(c1)oc1ccccc12 [Dibenzofuran] | > 90 | 
O=C1c2ccccc2CCc2ccccc21 [Dibenzosuberone] | > 90 | 
c1ccc2c(c1)sc1ccccc12 [Dibenzothiophene] |  | CC50 at 24 h (AC50 (uM) modified / 1000, Tox21_110001=Tox21_111308, viability, 1 nM T3 present, 24 h): > 50 µM; CC50 at 24 h (AC50 (uM) modified / 1000, Tox21_110001=Tox21_303415, viability, 1 nM T3 present, 24 h): > 90 µM
O=C(O[C@@H](C(=O)O)[C@@H](OC(=O)c1ccccc1)C(=O)O)c1ccccc1 [Dibenzoyl-L-tartaric acid] | > 90 | 
O=C(N=NC(=O)OCc1ccccc1)OCc1ccccc1 [Dibenzyl diazene-1,2-dicarboxylate] | > 90 | 
c1ccc(COCc2ccccc2)cc1 [Dibenzyl ether] | > 100 | 
O=C(OCc1ccccc1)C(=O)OCc1ccccc1 [Dibenzyl oxalate] | > 90 | 
O=P(O)(OCc1ccccc1)OCc1ccccc1 [Dibenzyl phosphate] | > 90 | 
c1ccc(CNCc2ccccc2)cc1 [Dibenzylamine] | > 90 | 
O=C(O)C(Br)Br [Dibromoacetic acid] |  | CC50 at 24 h (AC50 (uM) modified / 1000, Tox21_110001=Tox21_202297, viability, 1 nM T3 present, 24 h): > 90 µM
N#CC(Br)Br [Dibromoacetonitrile] |  | CC50 at 24 h (AC50 (uM) modified / 1000, Tox21_110001=Tox21_202319, viability, 1 nM T3 present, 24 h): > 90 µM
ClC(Cl)(Br)Br [Dibromodichloromethane] | > 90 | 
O[C@@H]([C@H](O)[C@H](O)CBr)[C@H](O)CBr [Dibromomannitol] | > 90 | 
BrCBr [Dibromomethane] | > 90 | 
O=[N+]([O-])C(Br)Br [Dibromonitromethane] |  | CC50 at 24 h (AC50 (uM) modified / 1000, Tox21_110001=Tox21_200899, viability, 1 nM T3 present, 24 h): > 90 µM
N=C(N)c1ccc(OCCCOc2ccc(C(=N)N)cc2Br)c(Br)c1 [Dibromopropamidine dihydrochloride] | 38.5 | 
CCCCOc1cc(C(=O)NCCN(CC)CC)c2ccccc2n1 [Dibucaine] | 9.45 | 

SMILES | CC50 at 24 h (AC50 (uM) modified / 1000) [µM] | further results
CCC(C)SSC(C)CC (stereo not drawn) [Dibutan-2-yl disulfide] | > 90 | 
CCCCOC(=O)CCCCC(=O)OCCCC [Dibutyl adipate] | > 90 | 
CCCCOC(=O)CCC(=O)OCCCC [Dibutyl butanedioate] |  | CC50 at 24 h (AC50 (uM) modified / 1000, Tox21_110001=Tox21_301514, viability, 1 nM T3 present, 24 h): > 90 µM
CCCCOC(=O)CCCCCCCCC(=O)OCCCC [Dibutyl decanedioate] | > 90 | 
CCCCOC(=O)C(=O)OCCCC [Dibutyl ethanedioate] | > 90 | 
CCCCOC(=O)/C=C\C(=O)OCCCC [Dibutyl maleate] | > 90 | 
CCCCOC(=O)CCCCCCCC(=O)OCCCC [Dibutyl nonanedioate] | > 90 | 
CCCCOC(=O)c1ccccc1C(=O)OCCCC [Dibutyl phthalate] | > 90 | 
CCCCSCCCC [Dibutyl sulfide] | > 90 | 
COc1c(Cl)ccc(Cl)c1C(=O)O [Dicamba] | > 90 | 
COP(=S)(OC)Oc1ccc([N+](=O)[O-])cc1Cl [Dicapthon] |  | CC50 at 24 h (AC50 (uM) modified / 1000, Tox21_110001=Tox21_301908, viability, 1 nM T3 present, 24 h): > 90 µM
Cc1ccc2c(c1)C1CN(C)CCC1N2 (stereo not drawn) [Dicarbine] | > 50 | 
CCOC(=O)OCC/C(SC(=O)OCC)=C(\C)N(C=O)Cc1cnc(C)nc1N [Dicethiamine hydrochloride] | > 50 | 
N#Cc1c(Cl)cccc1Cl [Dichlobenil] | > 90 | 
CCOP(=S)(OCC)Oc1ccc(Cl)cc1Cl [Dichlofenthion] |  | CC50 at 24 h (AC50 (uM) modified / 1000, Tox21_110001=Tox21_301160, viability, 1 nM T3 present, 24 h): > 90 µM
O=C1C(Cl)=C(Cl)C(=O)c2ccccc21 [Dichlone] |  | CC50 at 24 h (AC50 (uM) modified / 1000, Tox21_110001=Tox21_201652, viability, 1 nM T3 present, 24 h): 31.4 µM; CC50 at 24 h (AC50 (uM) modified / 1000, Tox21_110001=Tox21_303031, viability, 1 nM T3 present, 24 h): 7.73 µM
O=C(NC(O)C(Cl)(Cl)Cl)NC(O)C(Cl)(Cl)Cl (stereo not drawn) [Dichloralurea] | > 50 | 
C=CCN(CC=C)C(=O)C(Cl)Cl [Dichlormid] | > 90 | 
O=C(O)C(Cl)Cl [Dichloroacetic acid] | > 90 | 
N#CC(Cl)Cl [Dichloroacetonitrile] | 72.9 | 
O=C(Cl)C(Cl)Cl [Dichloroacetyl chloride] |  | CC50 at 24 h (AC50 (uM) modified / 1000, Tox21_110001=Tox21_200778, viability, 1 nM T3 present, 24 h): > 90 µM
Cl[Si](Cl)(c1ccccc1)c1ccccc1 [Dichlorodiphenylsilane] | > 90 | 
ClCCl [Dichloromethane] | > 90 | 
CC(C)(C)C(=O)C(Cl)Cl [Dichloropinacolin] | > 90 | 
NS(=O)(=O)c1cc(Cl)c(Cl)c(S(N)(=O)=O)c1 [Dichlorphenamide] | > 20 | 

SMILES | CC50 at 24 h (AC50 (uM) modified / 1000) [µM] | further results
CC(Oc1ccc(Cl)cc1Cl)C(=O)O (stereo not drawn) [Dichlorprop] | > 90 | 
COP(=O)(OC)OC=C(Cl)Cl [Dichlorvos] |  | CC50 at 24 h (AC50 (uM) modified / 1000, Tox21_110001=Tox21_111052, viability, 1 nM T3 present, 24 h): > 50 µM; CC50 at 24 h (AC50 (uM) modified / 1000, Tox21_110001=Tox21_201617, viability, 1 nM T3 present, 24 h): > 90 µM
O=C(O)Cc1ccccc1Nc1c(Cl)cccc1Cl [Diclofenac sodium] | > 90 | 
COC(=O)C(C)Oc1ccc(Oc2ccc(Cl)cc2Cl)cc1 (stereo not drawn) [Diclofop-methyl] | > 90 | 
Nc1c(Cl)cc([N+](=O)[O-])cc1Cl [Dicloran] | > 90 | 
CCOc1nc(F)cc2nc(S(=O)(=O)Nc3c(Cl)cccc3Cl)nn12 [Diclosulam] | > 90 | 
Cc1onc(-c2c(Cl)cccc2Cl)c1C(=O)N[C@@H]1C(=O)N2[C@@H]1SC(C)(C)[C@@H]2C(=O)O [Dicloxacillin sodium salt monohydrate] | > 50 | 
OC(c1ccc(Cl)cc1)(c1ccc(Cl)cc1)C(Cl)(Cl)Cl [Dicofol] | 79.5 | 
COP(=O)(OC)O/C(C)=C/C(=O)N(C)C [Dicrotophos] |  | CC50 at 24 h (AC50 (uM) modified / 1000, Tox21_110001=Tox21_301078, viability, 1 nM T3 present, 24 h): > 90 µM
O=c1oc2ccccc2c(O)c1Cc1c(O)c2ccccc2oc1=O [Dicumarol] | > 20 | 
C1CCC(SSC2CCCCC2)CC1 [Dicyclohexyl disulfide] | > 90 | 
O=C(OC1CCCCC1)c1ccccc1C(=O)OC1CCCCC1 [Dicyclohexyl phthalate] | 40.2 | 
O=C(CC(C(=O)OC1CCCCC1)S(=O)(=O)O)OC1CCCCC1 (stereo not drawn) [Dicyclohexyl sodium sulfosuccinate] | > 90 | 
C1CCC(C2CCCCC2)CC1 [Dicyclohexyl] |  | CC50 at 24 h (AC50 (uM) modified / 1000, Tox21_110001=Tox21_302104, viability, 1 nM T3 present, 24 h): > 90 µM
C1CCC(NC2CCCCC2)CC1 [Dicyclohexylamine] |  | CC50 at 24 h (AC50 (uM) modified / 1000, Tox21_110001=Tox21_111044, viability, 1 nM T3 present, 24 h): > 50 µM; CC50 at 24 h (AC50 (uM) modified / 1000, Tox21_110001=Tox21_201771, viability, 1 nM T3 present, 24 h): > 90 µM
C1C2OC2C2C1C1CC2C2OC12 (stereo not drawn) [Dicyclopentadiene dioxide] | > 90 | 
C1=CC2C3C=CC(C3)C2C1 (stereo not drawn) [Dicyclopentadiene] | > 90 | 
S=C(SSC(=S)N1CCCCC1)N1CCCCC1 [Dicyclopentamethylenethiuram disulfide] |  | CC50 at 24 h (AC50 (uM) modified / 1000, Tox21_110001=Tox21_113156, viability, 1 nM T3 present, 24 h): 0.373 µM
CCCCCCCCCCOC(=O)c1ccccc1C(=O)OCCCCCCCCCC [Didecyl phthalate] | > 90 | 
CCCCCCCCCC[N+](C)(C)CCCCCCCCCC [Didecyldimethylammonium chloride] | 10.7 | 
CCCCCCCCCCCC[N+](C)(C)CCCCCCCCCCCC [Didodecyldimethylammonium bromide] | 12.2 | 
ClC1=C(Cl)[C@]2(Cl)[C@@H]3[C@@H]4C[C@@H]([C@H]5O[C@@H]45)[C@@H]3[C@@]1(Cl)C2(Cl)Cl [Dieldrin] |  | CC50 at 24 h (AC50 (uM) modified / 1000, Tox21_110001=Tox21_400029, viability, 1 nM T3 present, 24 h): 75.8 µM
C/C=C(/C(=C/C)c1ccc(O)cc1)c1ccc(O)cc1 [Dienestrol] | 16.1 | 
OCCNCCO [Diethanolamine] | > 90 | 
